These results are taken from patent US8962674B2 (Tokyo Institute of Technology, priority 2006, dated 2015).

On to `COc1cc(/C=C/C(=O)CC(=O)/C=C/c2ccc3c(c2)OCO3)ccc1O` [CU009, (1E,6E)-1-(benzo[1,3]dioxol-5-yl)-7-(4-hydroxy-3-methoxyphenyl)hepta-1,6-diene-3,5-dione], for which the melting point (as a rule, the temperature, or range, at which the solid turns liquid) lay in the range of 149 to 152 °C.

For `O=C(/C=C/c1ccc(O)cc1)CC(=O)/C=C/c1ncc[nH]1` [CU143, (1E,6E)-1-(4-hydroxyphenyl)-7-(1H-imidazol-2-yl)hepta-1,6-diene-3,5-dione], the melting point lay within 175 to 181 °C.

With `CN(C)c1ccccc1/C=C/C(=O)CC(=O)/C=C/c1ccc(O)cc1` [CU495, (1E,6E)-1-(2-dimethylaminophenyl)-7-(4-hydroxyphenyl)hepta-1,6-diene-3,5-dione], the melting point was 68 to 72 °C.

Compound `COc1ccc(/C=C/C(=O)CC(=O)/C=C/c2ccc(C)c(C)c2)cc1O` [CU058, (1E,6E)-1-(3,4-dimethylphenyl)-7-(3-hydroxy-4-methoxyphenyl)hepta-1,6-diene-3,5-dione] gave a melting point of 150 to 154 °C.

`O=C(/C=C/c1ccc(O)cc1)CC(=O)/C=C/c1ccc2c(c1)OCO2` [CU215, (1E,6E)-1-(benzo[1,3]dioxol-5-yl)-7-(4-hydroxyphenyl)hepta-1,6-diene-3,5-dione] gave a melting point of 197 to 200 °C.

For the compound `O=C(/C=C/c1ccc(O)c(Cl)c1)CC(=O)CCc1ccc(O)cc1` [CU546, (E)-1-(3-chloro-4-hydroxyphenyl)-7-(4-hydroxyphenyl)hept-1-ene-3,5-dione], the melting point fell in the range of 45 to 51 °C.

`CCN(CC)c1ccc(/C=C/C(=O)CC(=O)/C=C/c2ccc(N(CC)CC)cc2OCC=C(C)C)c(OCC=C(C)C)c1` [CU431, (1E,6E)-1,7-bis(4-diethylamino-2-prenyloxyphenyl)hepta-1,6-diene-3,5-dione] had a melting point of 107 to 113 °C.

`O=C(/C=C/c1ccc(O)cc1)CC(=O)/C=C/c1ccc(N2CCN(Cc3ccccc3)CC2)nc1` [CU332, (1E,6E)-1-[6-(4-benzylpiperazin-1-yl)pyridin-3-yl]-7-(4-hydroxyphenyl)hepta-1,6-diene-3,5-dione] returned a melting point of 132 to 138 °C.

Compound `O=C(/C=C/c1ccc(O)cc1)CC(=O)/C=C/c1ccc(Cl)c(Cl)c1` [CU045, (1E,6E)-1-(3,4-dichlorophenyl)-7-(4-hydroxyphenyl)hepta-1,6-diene-3,5-dione] returned a melting point of 83 to 85 °C.

Turning to `COc1cc(/C=C/C(=O)CC(=O)/C=C/c2ccc(O)c(F)c2)ccc1O` [CU032, (1E,6E)-1-(3-fluoro-4-hydroxyphenyl)-7-(4-hydroxy-3-methoxyphenyl)hepta-1,6-diene-3,5-dione], the melting point lay within 186 to 189 °C.

In the case of `Cc1ccc(Oc2ccc(/C=C/C(=O)CC(=O)/C=C/c3ccc(O)cc3)cn2)cc1` [CU333, (1E,6E)-1-(4-hydroxyphenyl)-7-[6-(4-methylphenoxy)pyridin-3-yl]hepta-1,6-diene-3,5-dione], the melting point lay in the range of 167 to 172 °C.

Compound `COc1cccc(OC)c1/C=C/C(=O)CC(=O)/C=C/c1ccc(O)cc1` [CU102, (1E,6E)-1-(2,6-dimethoxyphenyl)-7-(4-hydroxyphenyl)hepta-1,6-diene-3,5-dione] displayed a melting point of 165 to 170 °C.

In the case of `COc1ccc(OC)c(/C=C/C(=O)CC(=O)/C=C/c2ccc(OC)c(O)c2)c1` [CU077, (1E,6E)-1-(2,5-dimethoxyphenyl)-7-(3-hydroxy-4-methoxyphenyl)hepta-1,6-diene-3,5-dione], the melting point was in the range of 63 to 68 °C.

As for `COC(=O)c1ccc(/C=C/C(=O)CC(=O)/C=C/c2ccc(O)c(OC)c2)cc1` [CU316, (1E,6E)-1-(4-hydroxy-3-methoxyphenyl)-7-[4-(methoxycarbonyl)phenyl]hepta-1,6-diene-3,5-dione], the melting point lay within 149 to 152 °C.

Regarding `COc1ccc(/C=C/C(=O)CC(=O)/C=C/c2ccc(O)c(Cl)c2)cc1O` [CU044, (1E,6E)-1-(3-chloro-4-hydroxyphenyl)-7-(3-hydroxy-4-methoxyphenyl)hepta-1,6-diene-3,5-dione], the melting point fell in the range of 195 to 197 °C.

The compound `COc1cc(/C=C/C(=O)CC(=O)/C=C/c2ccc(O)cc2)cc(OC)c1O` [CU134, (1E,6E)-1-(4-hydroxy-3,5-dimethoxyphenyl)-7-(4-hydroxyphenyl)hepta-1,6-diene-3,5-dione] returned a melting point of 228 to 233 °C.

`COc1cc(/C=C/C(=O)CC(=O)/C=C/c2cn(C)c3ccccc23)ccc1O` [CU124, (1E,6E)-1-(4-hydroxy-3-methoxyphenyl)-7-(1-methyl-1H-indol-3-yl)hepta-1,6-diene-3,5-dione] gave a melting point of 173 to 175 °C.

Take `O=C(/C=C/c1ccc(O)cc1)CC(=O)/C=C/c1ccccc1-c1ccncc1` [CU514, (1E,6E)-1-(4-hydroxyphenyl)-7-[2-(pyridin-4-yl)phenyl]hepta-1,6-diene-3,5-dione]: the melting point was in the range of 249 to 256 °C.

`COc1cc(/C=C/C(=O)CC(=O)/C=C/c2ccc3ccn(Cc4ccccc4)c3c2)ccc1O` [CU443, (1E,6E)-1-(1-benzyl-1H-indol-6-yl)-7-(4-hydroxy-3-methoxyphenyl)hepta-1,6-diene-3,5-dione] displayed a melting point of 180 to 184 °C.

In turn, `COc1cc(/C=C/C(=O)CC(=O)/C=C/c2cccs2)ccc1O` [CU016, (1E,6E)-1-(4-hydroxy-3-methoxyphenyl)-7-(thiophen-2-yl)hepta-1,6-diene-3,5-dione] showed a melting point of 52 to 54 °C.

For `O=C(/C=C/c1ccc(O)cc1)CC(=O)/C=C/c1cc(Cl)ccc1[N+](=O)[O-]` [CU465, (1E,6E)-1-(5-chloro-2-nitrophenyl)-7-(4-hydroxyphenyl)hepta-1,6-diene-3,5-dione], the melting point was 241 to 250 °C.

In the case of `O=C(/C=C/c1cccc2ncccc12)CC(=O)/C=C/c1cccc2ncccc12` [CU384, (1E,6E)-1,7-bis(quinolin-5-yl)hepta-1,6-diene-3,5-dione], the melting point was 170 to 174 °C.

On to `COc1cc(/C=C/C(=O)CC(=O)/C=C/c2cc(Cl)ccc2Cl)ccc1O` [CU184, (1E,6E)-1-(2,5-dichlorophenyl)-7-(4-hydroxy-3-methoxyphenyl)hepta-1,6-diene-3,5-dione], for which the melting point fell in the range of 142 to 147 °C.

The compound `COc1cc(/C=C/C(=O)CC(=O)/C=C/c2ccc(NC(C)=O)cc2)ccc1O` [CU003, (1E,6E)-N-{4-[7-(4-hydroxy-3-methoxyphenyl)-3,5-dioxohepta-1,6-dienyl]phenyl}acetamide] came in with a melting point of 193 to 195 °C.

Turning to `COc1ccc(OC)c(/C=C/C(=O)CC(=O)/C=C/c2ccc(O)c(OC)c2)c1` [CU076, (1E,6E)-1-(2,5-dimethoxyphenyl)-7-(4-hydroxy-3-methoxyphenyl)hepta-1,6-diene-3,5-dione], the melting point lay in the range of 127 to 129 °C.

`Cc1cc(/C=C/C(=O)CC(=O)/C=C/c2ccc(O)cc2)ccc1O` [CU029, (1E,6E)-1-(4-hydroxy-3-methylphenyl)-7-(4-hydroxyphenyl)hepta-1,6-diene-3,5-dione] yielded a melting point of 197 to 199 °C.

Regarding `CCN(CC)c1ccc(/C=C/C(=O)CC(=O)/C=C/c2ccc(O)cc2)c(OCCO)c1` [CU430, (1E,6E)-1-[4-diethylamino-2-(2-hydroxyethoxy)phenyl]-7-(4-hydroxyphenyl)hepta-1,6-diene-3,5-dione], the melting point lay in the range of 182 to 186 °C.

`O=C(/C=C/c1ccc(O)cc1)CC(=O)/C=C/c1ccc(Oc2ccccc2)cc1` [CU213, (1E,6E)-1-(4-hydroxyphenyl)-7-(4-phenoxyphenyl)hepta-1,6-diene-3,5-dione] displayed a melting point of 175 to 178 °C.

The compound `Cn1cc(/C=C/C(=O)CC(=O)/C=C/c2ccc(O)cc2)c2ccccc21` [CU123, (1E,6E)-1-(4-hydroxyphenyl)-7-(1-methyl-1H-indol-3-yl)hepta-1,6-diene-3,5-dione] displayed a melting point of 185 to 190 °C.

On to `COc1ccc(/C=C/C(=O)CC(=O)/C=C/c2cccc(OC)c2OC)cc1O` [CU071, (1E,6E)-1-(2,3-dimethoxyphenyl)-7-(3-hydroxy-4-methoxyphenyl)hepta-1,6-diene-3,5-dione], for which the melting point lay in the range of 144 to 148 °C.

For the compound `COc1cccc(/C=C/C(=O)CC(=O)/C=C/c2ccc(O)cc2)c1` [CU158, (1E,6E)-1-(4-hydroxyphenyl)-7-(3-methoxyphenyl)hepta-1,6-diene-3,5-dione], the melting point was in the range of 74 to 80 °C.

As to `COc1ccc(/C=C/C(=O)CC(=O)/C=C/c2ccc(F)c(OC)c2)cc1O` [CU139, (1E,6E)-1-(4-fluoro-3-methoxyphenyl)-7-(3-hydroxy-4-methoxyphenyl)hepta-1,6-diene-3,5-dione], the melting point was in the range of 145 to 147 °C.

With `COc1ccc(/C=C/C(=O)CC(=O)/C=C/c2cn(Cc3ccccc3)c3ccccc23)cc1O` [CU417, (1E,6E)-1-(1-benzyl-1H-indol-3-yl)-7-(3-hydroxy-4-methoxyphenyl)hepta-1,6-diene-3,5-dione], the melting point lay in the range of 194 to 199 °C.

Compound `CC(C)(C)OC(=O)N1CCN(c2ccccc2/C=C/C(=O)CC(=O)/C=C/c2ccc(O)cc2)CC1` [CU499, (1E,6E)-1-{2-[4-(tert-butoxycarbonyl)piperazin-1-yl]phenyl}-7-(4-hydroxyphenyl)hepta-1,6-diene-3,5-dione] had a melting point of 115 to 121 °C.

Turning to `COc1cc(/C=C/C(=O)CC(=O)/C=C/c2ccco2)ccc1O` [CU015, (1E,6E)-1-(furan-2-yl)-7-(4-hydroxy-3-methoxyphenyl)hepta-1,6-diene-3,5-dione], the melting point was in the range of 48 to 50 °C.

The compound `O=C(/C=C/c1ccc(O)cc1)CC(=O)/C=C/c1cccc(Br)c1` [CU464, (1E,6E)-1-(3-bromophenyl)-7-(4-hydroxyphenyl)hepta-1,6-diene-3,5-dione] displayed a melting point of 156 to 160 °C.

Compound `CS(=O)(=O)n1cc(/C=C/C(=O)CC(=O)/C=C/c2ccc(O)cc2)c2ccccc21` [CU401, (1E,6E)-1-(4-hydroxyphenyl)-7-[1-(methylsulfonyl)-1H-indol-3-yl]hepta-1,6-diene-3,5-dione] returned a melting point of 196 to 200 °C.

As to `COc1ccc(/C=C/C(=O)CC(=O)/C=C/c2ccc(Oc3ccccc3)cc2)cc1O` [CU219, (1E,6E)-1-(3-hydroxy-4-methoxyphenyl)-7-(4-phenoxyphenyl)hepta-1,6-diene-3,5-dione], the melting point was in the range of 185 to 187 °C.
